Literature values in patent US9089677B2, “Transcutaneous multimodal delivery system (TMDS)” (The Regents of the University of California, priority 2011, dated 2015).
Like-named read-outs stand apart in the source and are kept apart here.

Key:
[1] = tested on: fibroblasts; details: cited from earlier work
[2] = tested on: keratinocytes; details: cited from earlier work
[3] = up to 3 mg/kg subcutaneously or intravenously in mice, rats, and monkey; cited from earlier work
[4] = diabetic rodent wounds; cited from earlier work
[5] = full thickness pig burn wounds; cited from earlier work
[6] = tested on: normal rat kidney fibroblast (NRK, clone 49F); details: NRK fibroblast proliferation; cited from earlier work
[7] = tested on: fungal subspecies (e.g., Candida albicans or glabrata as well as Mucor and Aspergillus); details: time kill-kinetic; cited from earlier work
[8] = tested on: keratinocyte and fibroblast; details: 10% solution; cited from earlier work

For `NCc1ccc(S(N)(=O)=O)cc1` [MA, mafenide acetate], the “lowest dose with reported in vitro toxicity” value [1] is listed as 0.1% and the “lowest dose with reported in vitro toxicity” value [2] is listed as 0.85%.

In the case of “becaplermin: recombinant human PDGF (rhPDGF)-BB homodimer”, the “acute toxicity and mortality” value [3] is listed as “no significant acute toxicity or any mortality”, the granulation tissue formation [4] is listed as “significantly increased granulation tissue formation” and the reepithelialization [4] is listed as “did not promote faster reepithelialization”. For the same compound, the granulation tissue formation [5] was “significantly increased granulation tissue formation”, the reepithelialization [5] was “did not promote faster reepithelialization” and the half maximal activity [6] was 0.5 ng/mL.

In the case of `O=[N+]([O-])[O-].[Ag+]` [silver nitrate], the “antimicrobial activity against fungal subspecies” value [7] is given as “activity for only C. albicans” and the “keratinocyte and fibroblast toxicity” value [8] is given as “keratinocyte and fibroblast toxicity”.
